Assay results from patent US5455278A (priority 1994, dated 1995).

How the values were obtained:
[1] = system: Clostridium botulinum; assay type: cell-based; conditions: anaerobic conditions, 20° C.
[2] = system: Staphylococcus aureus; assay: Inhibitory effect of falcarindiol on S. aureus (optical density at 600nm, aerobic); assay type: cell-based; conditions: aerobic conditions, 20° C.
[3] = system: Escherichia coli; assay: Inhibitory effect of falcarindiol on E. coli (optical density at 600nm, aerobic); assay type: cell-based; conditions: aerobic conditions, 20° C.
[4] = system: Salmonella typhimurium; assay: Inhibitory effect of falcarindiol on S. typhimurium (optical density at 600nm, aerobic); assay type: cell-based; conditions: aerobic conditions, 20° C.
[5] = Solubility of falcarindiol; assay type: physicochemical
[6] = Inactivation of falcarindiol by heating; assay type: physicochemical
[7] = Effectiveness of falcarindiol as inhibitor versus pH and aerobic conditions; assay type: cell-based
[8] = mice; cited from earlier work
[9] = system: L. monocytogenes; assay: Effect of oxygen on the inhibitory activity of falcarindiol; conditions: pH 7.5, 20° C.
[10] = system: mechanosensitive channels; conditions: giant spheroplasts of E. coli, patch clamp

## C=CC(O)C#CC#CC(O)C=CCCCCCCC (stereo not shown) [falcarindiol]
[1]
  inhibition of C. botulinum: inhibited
[2]
  inhibition of S. aureus: inhibited
[3]
  inhibition of E. coli: inactive
[4]
  inhibition of S. typhimurium: inactive
[5]
  solubility in ethyl acetate: readily soluble
[6]
  stability to heating (activity): can be inactivated by heating
[7]; aerobic conditions
  activity under aerobic conditions: active under aerobic conditions
[7]; pH
  pH (acidity) values at which it is effective: above 5
[8]
  LD50: about 100 mg/kg of body weight
[9]; aerobic
  inactivation of L. monocytogenes under aerobic conditions: completely inactivated
[9]; anaerobic
  lag phase of L. monocytogenes under anaerobic conditions: 15 h
[9]
  inhibition under aerobic versus anaerobic conditions: much greater under aerobic conditions
[10]
  activation of mechanosensitive channels: mechanosensitive channels were activated
